Earlier results, collected in patent publication US11304902B2, “Pharmaceutical compositions, preparation and uses thereof” (CURADIGM SAS, priority 2014, dated 2022).

How the values were obtained:
Conditions in all cases: human CYP enzyme
CYP4F12 = target: T1, CYP4F12 (Homo sapiens, UniProt Q9HCS2)
T1 sequence (Q9HCS2 1-524): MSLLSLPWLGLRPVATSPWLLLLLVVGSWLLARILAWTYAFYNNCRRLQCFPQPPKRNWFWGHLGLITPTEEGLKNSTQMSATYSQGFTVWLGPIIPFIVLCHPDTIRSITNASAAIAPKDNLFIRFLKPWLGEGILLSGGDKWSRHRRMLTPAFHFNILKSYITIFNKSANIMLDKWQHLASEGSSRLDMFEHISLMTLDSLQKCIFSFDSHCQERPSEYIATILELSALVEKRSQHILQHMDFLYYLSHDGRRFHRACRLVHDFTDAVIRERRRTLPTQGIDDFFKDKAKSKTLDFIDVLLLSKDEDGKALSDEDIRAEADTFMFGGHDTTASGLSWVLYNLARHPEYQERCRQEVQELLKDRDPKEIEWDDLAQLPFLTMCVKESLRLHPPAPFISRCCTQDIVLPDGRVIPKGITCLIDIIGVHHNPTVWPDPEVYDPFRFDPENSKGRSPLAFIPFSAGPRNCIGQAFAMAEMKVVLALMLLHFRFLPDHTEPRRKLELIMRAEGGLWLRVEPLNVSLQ

CYP4F8 = target: T2, CYP4F8 (Homo sapiens, UniProt P98187)
T2 sequence (P98187 1-520): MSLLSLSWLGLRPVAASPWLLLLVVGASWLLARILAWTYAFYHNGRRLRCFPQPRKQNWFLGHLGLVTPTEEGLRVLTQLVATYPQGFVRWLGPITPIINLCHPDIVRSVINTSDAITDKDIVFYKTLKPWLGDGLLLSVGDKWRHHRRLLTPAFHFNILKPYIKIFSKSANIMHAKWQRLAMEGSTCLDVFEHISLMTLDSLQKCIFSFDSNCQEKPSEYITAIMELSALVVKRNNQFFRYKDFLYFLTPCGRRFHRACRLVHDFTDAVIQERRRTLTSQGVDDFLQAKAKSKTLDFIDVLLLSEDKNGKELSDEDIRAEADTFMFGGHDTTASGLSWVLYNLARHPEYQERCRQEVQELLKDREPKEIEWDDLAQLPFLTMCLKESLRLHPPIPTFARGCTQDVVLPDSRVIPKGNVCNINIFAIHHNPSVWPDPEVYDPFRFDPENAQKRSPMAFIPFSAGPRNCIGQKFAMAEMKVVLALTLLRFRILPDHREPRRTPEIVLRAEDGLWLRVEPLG

CYP4A11 = target: T3, CYP4A11 (Homo sapiens, UniProt Q02928)
T3 sequence (Q02928 5-519): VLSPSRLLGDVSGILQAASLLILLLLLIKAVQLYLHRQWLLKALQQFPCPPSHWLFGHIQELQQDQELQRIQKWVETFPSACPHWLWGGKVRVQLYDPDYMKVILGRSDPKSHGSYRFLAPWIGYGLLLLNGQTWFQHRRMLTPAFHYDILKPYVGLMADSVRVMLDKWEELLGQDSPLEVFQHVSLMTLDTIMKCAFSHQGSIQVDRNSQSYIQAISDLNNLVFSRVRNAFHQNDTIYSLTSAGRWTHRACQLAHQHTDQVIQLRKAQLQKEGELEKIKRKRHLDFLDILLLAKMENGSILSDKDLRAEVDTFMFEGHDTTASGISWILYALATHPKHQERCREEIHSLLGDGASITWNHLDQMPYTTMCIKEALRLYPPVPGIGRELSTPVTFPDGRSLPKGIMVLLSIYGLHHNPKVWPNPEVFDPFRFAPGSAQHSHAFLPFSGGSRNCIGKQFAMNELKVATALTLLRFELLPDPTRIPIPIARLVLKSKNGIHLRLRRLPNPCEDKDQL

CYP2D6 = CYP2D6 (Homo sapiens, UniProt P10635)
Sequence of CYP2D6 (P10635 whole entry): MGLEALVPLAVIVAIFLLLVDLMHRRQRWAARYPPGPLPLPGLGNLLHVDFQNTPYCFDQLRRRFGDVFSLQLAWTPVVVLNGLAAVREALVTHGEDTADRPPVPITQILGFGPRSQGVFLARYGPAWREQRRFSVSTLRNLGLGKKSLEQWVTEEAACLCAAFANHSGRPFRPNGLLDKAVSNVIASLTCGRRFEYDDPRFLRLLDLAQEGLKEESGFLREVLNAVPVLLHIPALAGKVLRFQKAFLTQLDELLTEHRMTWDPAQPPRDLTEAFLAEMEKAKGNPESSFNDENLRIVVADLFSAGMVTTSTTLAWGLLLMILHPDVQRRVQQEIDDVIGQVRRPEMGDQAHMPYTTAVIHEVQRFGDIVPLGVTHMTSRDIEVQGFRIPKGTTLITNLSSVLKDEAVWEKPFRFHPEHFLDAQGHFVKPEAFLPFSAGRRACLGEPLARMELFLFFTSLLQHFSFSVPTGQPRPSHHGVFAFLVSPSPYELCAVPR

CYP2A6 = target: T4, CYP2A6 (Homo sapiens, UniProt P11509)
T4 sequence (P11509 1-494): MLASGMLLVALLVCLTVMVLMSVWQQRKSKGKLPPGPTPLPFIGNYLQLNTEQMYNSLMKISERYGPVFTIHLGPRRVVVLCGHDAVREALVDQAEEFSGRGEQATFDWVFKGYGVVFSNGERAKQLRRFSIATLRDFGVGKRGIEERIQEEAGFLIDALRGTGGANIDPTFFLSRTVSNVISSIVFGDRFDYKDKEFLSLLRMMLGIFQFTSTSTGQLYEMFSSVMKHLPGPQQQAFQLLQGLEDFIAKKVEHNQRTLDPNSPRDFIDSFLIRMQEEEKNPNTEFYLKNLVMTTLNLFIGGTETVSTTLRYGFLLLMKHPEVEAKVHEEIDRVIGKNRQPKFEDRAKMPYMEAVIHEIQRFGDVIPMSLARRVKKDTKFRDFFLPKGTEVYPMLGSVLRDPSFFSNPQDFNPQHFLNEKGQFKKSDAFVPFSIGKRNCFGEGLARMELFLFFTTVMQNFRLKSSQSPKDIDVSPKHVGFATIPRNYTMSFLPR

- role towards CYP4F12 (substrate / inhibitor / inducer) (CYP4F12): Substrate
- role towards CYP4F8 (substrate / inhibitor / inducer) (CYP4F8): Substrate
- role towards CYP4A11 (substrate / inhibitor / inducer) (CYP4A11): Substrate
- role towards CYP2D6 (substrate / inhibitor / inducer) (CYP2D6): Inhibitor
- role towards CYP2A6 (substrate / inhibitor / inducer) (CYP2A6): Substrate
SMILES: CCCCC/C=C\C/C=C\C/C=C\C/C=C\CCCC(=O)O [Arachidonic acid, arachidonic acid]
